# Source: PubChem BioAssay (NCI)
#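 GI50 is the concentration that inhibits growth by half. TGI: total growth inhibition.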
# Columns and labels:
# Assay in all cases: growth of human tumour cells (NCI), 384-well format
# A498 renal = tested on: A498 renal
# A549 NSCLC = tested on: A549 NSCLC
# ACHN renal = tested on: ACHN renal
# BT-549 breast = tested on: BT-549 breast
# CAKI-1 renal = tested on: CAKI-1 renal
# COLO 205 colon = tested on: COLO 205 colon
# DU-145 prostate = tested on: DU-145 prostate
# EKVX NSCLC = tested on: EKVX NSCLC
# HCC-2998 colon = tested on: HCC-2998 colon
# HCT-116 colon = tested on: HCT-116 colon
# HCT-15 colon = tested on: HCT-15 colon
# HL-60(TB) leukemia = tested on: HL-60(TB) leukemia
# HOP-62 NSCLC = tested on: HOP-62 NSCLC
# HOP-92 NSCLC = tested on: HOP-92 NSCLC
# HS 578T breast = tested on: HS 578T breast
# HT29 colon = tested on: HT29 colon
# IGROV1 ovarian = tested on: IGROV1 ovarian
# KM12 colon = tested on: KM12 colon
# LOX IMVI melanoma = tested on: LOX IMVI melanoma
# M14 melanoma = tested on: M14 melanoma
# MALME-3M melanoma = tested on: MALME-3M melanoma
# MCF7 breast = tested on: MCF7 breast
# MDA-MB-231 breast = tested on: MDA-MB-231 breast
# MDA-MB-435 melanoma = tested on: MDA-MB-435 melanoma
# MDA-MB-468 breast = tested on: MDA-MB-468 breast
# MOLT-4 leukemia = tested on: MOLT-4 leukemia
# NCI-H226 lung = tested on: NCI-H226 lung
# NCI-H23 lung = tested on: NCI-H23 lung
# NCI-H322M lung = tested on: NCI-H322M lung
# NCI-H460 NSCLC = tested on: NCI-H460 NSCLC
# NCI-H522 lung = tested on: NCI-H522 lung
# NCI/ADR-RES ovarian = tested on: NCI/ADR-RES ovarian
# OVCAR-3 ovarian = tested on: OVCAR-3 ovarian
# OVCAR-4 ovarian = tested on: OVCAR-4 ovarian
# OVCAR-5 ovarian = tested on: OVCAR-5 ovarian
# OVCAR-8 ovarian = tested on: OVCAR-8 ovarian
# PC-3 prostate = tested on: PC-3 prostate
# RPMI-8226 leukemia = tested on: RPMI-8226 leukemia
# RXF 393 renal = tested on: RXF 393 renal
# SF-268 CNS = tested on: SF-268 CNS
# SF-295 CNS = tested on: SF-295 CNS
# SF-539 CNS = tested on: SF-539 CNS
# SK-MEL-28 melanoma = tested on: SK-MEL-28 melanoma
# SK-MEL-5 melanoma = tested on: SK-MEL-5 melanoma
# SK-OV-3 ovarian = tested on: SK-OV-3 ovarian
# SN12C renal = tested on: SN12C renal
# SNB-19 CNS = tested on: SNB-19 CNS
# SNB-75 CNS = tested on: SNB-75 CNS
# SR leukemia = tested on: SR leukemia
# T-47D breast = tested on: T-47D breast
# TK-10 renal = tested on: TK-10 renal
# U251 glioblastoma = tested on: U251 glioblastoma
# UACC-257 melanoma = tested on: UACC-257 melanoma
# UACC-62 melanoma = tested on: UACC-62 melanoma
smiles,measurement,setting,value
NC(=O)c1ccc(N(C(N)=O)c2c(F)cccc2F)nc1-c1ccc(F)cc1F,GI50,A498 renal,> 100 µM
same,TGI,A498 renal,> 100 µM
same,GI50,A549 NSCLC,> 100 µM
same,TGI,A549 NSCLC,> 100 µM
same,GI50,ACHN renal,> 100 µM
same,TGI,ACHN renal,> 100 µM
same,GI50,BT-549 breast,> 100 µM
same,TGI,BT-549 breast,> 100 µM
same,GI50,CAKI-1 renal,> 100 µM
same,TGI,CAKI-1 renal,> 100 µM
same,GI50,COLO 205 colon,> 100 µM
same,TGI,COLO 205 colon,> 100 µM
same,GI50,DU-145 prostate,> 100 µM
same,TGI,DU-145 prostate,> 100 µM
same,GI50,EKVX NSCLC,> 100 µM
same,TGI,EKVX NSCLC,> 100 µM
same,GI50,HCC-2998 colon,> 100 µM
same,TGI,HCC-2998 colon,> 100 µM
same,GI50,HCT-116 colon,> 100 µM
same,TGI,HCT-116 colon,> 100 µM
same,GI50,HCT-15 colon,> 100 µM
same,TGI,HCT-15 colon,> 100 µM
same,GI50,HL-60(TB) leukemia,> 100 µM
same,TGI,HL-60(TB) leukemia,> 100 µM
same,GI50,HOP-62 NSCLC,> 100 µM
same,TGI,HOP-62 NSCLC,> 100 µM
same,GI50,HOP-92 NSCLC,> 100 µM
same,TGI,HOP-92 NSCLC,> 100 µM
same,GI50,HS 578T breast,> 100 µM
same,TGI,HS 578T breast,> 100 µM
same,GI50,HT29 colon,> 100 µM
same,TGI,HT29 colon,> 100 µM
same,GI50,IGROV1 ovarian,> 100 µM
same,TGI,IGROV1 ovarian,> 100 µM
same,GI50,KM12 colon,> 100 µM
same,TGI,KM12 colon,> 100 µM
same,GI50,LOX IMVI melanoma,> 100 µM
same,TGI,LOX IMVI melanoma,> 100 µM
same,GI50,M14 melanoma,> 100 µM
same,TGI,M14 melanoma,> 100 µM
same,GI50,MALME-3M melanoma,> 100 µM
same,TGI,MALME-3M melanoma,> 100 µM
same,GI50,MCF7 breast,> 100 µM
same,TGI,MCF7 breast,> 100 µM
same,GI50,MDA-MB-231 breast,> 100 µM
same,TGI,MDA-MB-231 breast,> 100 µM
same,GI50,MDA-MB-435 melanoma,> 100 µM
same,TGI,MDA-MB-435 melanoma,> 100 µM
same,GI50,MDA-MB-468 breast,> 100 µM
same,TGI,MDA-MB-468 breast,> 100 µM
same,GI50,MOLT-4 leukemia,> 100 µM
same,TGI,MOLT-4 leukemia,> 100 µM
same,GI50,NCI-H226 lung,> 100 µM
same,TGI,NCI-H226 lung,> 100 µM
same,GI50,NCI-H23 lung,> 100 µM
same,TGI,NCI-H23 lung,> 100 µM
same,GI50,NCI-H322M lung,> 100 µM
same,TGI,NCI-H322M lung,> 100 µM
same,GI50,NCI-H460 NSCLC,> 100 µM
same,TGI,NCI-H460 NSCLC,> 100 µM
same,GI50,NCI-H522 lung,> 100 µM
same,TGI,NCI-H522 lung,> 100 µM
same,GI50,NCI/ADR-RES ovarian,> 100 µM
same,TGI,NCI/ADR-RES ovarian,> 100 µM
same,GI50,OVCAR-3 ovarian,> 100 µM
same,TGI,OVCAR-3 ovarian,> 100 µM
same,GI50,OVCAR-4 ovarian,> 100 µM
same,TGI,OVCAR-4 ovarian,> 100 µM
same,GI50,OVCAR-5 ovarian,> 100 µM
same,TGI,OVCAR-5 ovarian,> 100 µM
same,GI50,OVCAR-8 ovarian,> 100 µM
same,TGI,OVCAR-8 ovarian,> 100 µM
same,GI50,PC-3 prostate,> 100 µM
same,TGI,PC-3 prostate,> 100 µM
same,GI50,RPMI-8226 leukemia,> 100 µM
same,TGI,RPMI-8226 leukemia,> 100 µM
same,GI50,RXF 393 renal,> 100 µM
same,TGI,RXF 393 renal,> 100 µM
same,GI50,SF-268 CNS,> 100 µM
same,TGI,SF-268 CNS,> 100 µM
same,GI50,SF-295 CNS,> 100 µM
same,TGI,SF-295 CNS,> 100 µM
same,GI50,SF-539 CNS,> 100 µM
same,TGI,SF-539 CNS,> 100 µM
same,GI50,SK-MEL-28 melanoma,> 100 µM
same,TGI,SK-MEL-28 melanoma,> 100 µM
same,GI50,SK-MEL-5 melanoma,> 100 µM
same,TGI,SK-MEL-5 melanoma,> 100 µM
same,GI50,SK-OV-3 ovarian,> 100 µM
same,TGI,SK-OV-3 ovarian,> 100 µM
same,GI50,SN12C renal,> 100 µM
same,TGI,SN12C renal,> 100 µM
same,GI50,SNB-19 CNS,> 100 µM
same,TGI,SNB-19 CNS,> 100 µM
same,GI50,SNB-75 CNS,> 100 µM
same,TGI,SNB-75 CNS,> 100 µM
same,GI50,SR leukemia,98.2 µM
same,TGI,SR leukemia,> 100 µM
same,GI50,T-47D breast,> 100 µM
same,TGI,T-47D breast,> 100 µM
same,GI50,TK-10 renal,> 100 µM
same,TGI,TK-10 renal,> 100 µM
same,GI50,U251 glioblastoma,> 100 µM
same,TGI,U251 glioblastoma,> 100 µM
same,GI50,UACC-257 melanoma,> 100 µM
same,TGI,UACC-257 melanoma,> 100 µM
same,GI50,UACC-62 melanoma,> 100 µM
same,TGI,UACC-62 melanoma,> 100 µM
